The test system of this assay is 22RV1 cells. Description: Experiment 2 on inhibiting 22RV1 cell proliferation (7 days, CellTiter-Glo). The format is cell-based. Particulars: 1% css-FBS phenol red-free medium, incubated with compound 7 days, read-out: IC50 values on proliferation inhibition of 22RV1 cells. The gist of the method: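 22RV1 cells plated at 2000/well in phenol red-free medium with 1% css-FBS and treated next day with compound for 7 days at 37 °C. Viability read by CellTiter-Glo luminescence relative to DMSO vehicle; IC50 from dose-response fit.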
Background: Cellular ATP, detected with luciferase, serves as a proxy for viable cell number.

SMILES strings stand for the structures. Structures can show the parent of a compound that is named as a salt. Where two headings read alike, the source gives them in different places.

For the molecule `CC(C)(c1ccc(OCc2ccnc(N3CCN(C4CCN(CC5CN(c6ccc7c(c6)C(=O)N(C6CCC(=O)NC6=O)C7=O)C5)C4)CC3)n2)cc1)c1cc(Cl)cc(C#N)c1` (centres unmarked) [Compound 61 trifluoroacetate, 3-chloro-5-(2-(4-((2-(4-(1-((1-(2-(2,6-dioxopiperidin-3-yl)-1,3-dioxoisoindolin-5-yl)azetidin-3-yl)methyl)pyrrolidin-3-yl)piperazin-1-yl)pyrimidin-4-yl)methoxy)phenyl)propan-2-yl)benzonitrile], where the note is “Homo sapiens, 22Rv1, 168 h”, the IC50 was determined as 632 nM. As to `Cn1c(=O)n(C2CCC(=O)NC2=O)c2cccc(CN3CC(N4CCC(N5CCC6(CC5)CN(c5nccc(COc7ccc(C(C)(C)c8cc(Cl)c(OCCCl)c(C#N)c8)cc7)n5)C6)CC4)C3)c21` (centres unmarked) [Compound 26, 3-chloro-2-(2-chloroethoxy)-5-(2-(4-((2-(7-(1-(1-((1-(2,6-dioxopiperidin-3-yl)-3-methyl-2-oxo-2,3-dihydro-1H-benzo[d]imidazol-4-yl)methyl)azetidin-3-yl)piperidin-4-yl)-2,7-diazaspiro[3.5]nonan-2-yl)pyrimidin-4-yl)methoxy)phenyl)propan-2-yl)benzonitrile], the IC50 is 548 nM. `CC(C)(c1ccc(OCc2ccnc(N3CCN(C4CN(CC5CCN(c6ccc7c(c6)C(=O)N(C6CCC(=O)NC6=O)C7=O)CC5)C4)CC3)n2)cc1)c1cc(Cl)cc(C#N)c1` (centres unmarked) [Compound 56 trifluoroacetate, 3-chloro-5-(2-(4-((2-(4-(1-((1-(2-(2,6-dioxopiperidin-3-yl)-1,3-dioxoisoindolin-5-yl)piperidin-4-yl)methyl)azetidin-3-yl)piperazin-1-yl)pyrimidin-4-yl)methoxy)phenyl)propan-2-yl)benzonitrile]: the IC50 (Homo sapiens, 22Rv1, 168 h) was determined as 716 nM. The same measure, in the same setting: the same measure for `Cn1c(=O)n(C2CCC(=O)NC2=O)c2ccc(C3CCN(C4CCN(CC5(F)CCN(c6nccc(COc7ccc(C(C)(C)c8cc(Cl)cc(C#N)c8)cc7)n6)CC5)CC4)CC3)cc21` (centres unmarked) [Compound 90 trifluoroacetate, 3-chloro-5-(2-(4-((2-(4-((4-(1-(2,6-dioxopiperidin-3-yl)-3-methyl-2-oxo-2,3-dihydro-1H-benzo[d]imidazol-5-yl)-[1,4′-bipiperidin]-1′-yl)methyl)-4-fluoropiperidin-1-yl)pyrimidin-4-yl)methoxy)phenyl)propan-2-yl)benzonitrile]: 627 nM; for `CC(C)(c1ccc(OCc2ccnc(N3CCC4(CC3)CN(C3CN(C5CN(c6ccc7c(c6)C(=O)N(C6CCC(=O)NC6=O)C7=O)C5)C3)C4)n2)cc1)c1cc(Cl)cc(C#N)c1` (centres unmarked) [Compound 76 trifluoroacetate, 3-chloro-5-(2-(4-((2-(2-(1′-(2-(2,6-dioxopiperidin-3-yl)-1,3-dioxoisoindolin-5-yl)-[1,3′-biazetidin]-3-yl)-2,7-diazaspiro[3.5]nonan-7-yl)pyrimidin-4-yl)methoxy)phenyl)propan-2-yl)benzonitrile]: 475 nM.

With `CC(C)(c1ccc(OCc2ccnc(N3CC4(CCN(C5CCN(CC6CCN(c7ccc8c(c7)C(=O)N(C7CCC(=O)NC7=O)C8=O)CC6)CC5)CC4)C3)n2)cc1)c1cc(Cl)c(OCCCl)c(C#N)c1` (centres unmarked) [Compound 24, 3-chloro-2-(2-chloroethoxy)-5-(2-(4-((2-(7-(1-((1-(2-(2,6-dioxopiperidin-3-yl)-1,3-dioxoisoindolin-5-yl)piperidin-4-yl)methyl)piperidin-4-yl)-2,7-diazaspiro[3.5]nonan-2-yl)pyrimidin-4-yl)methoxy)phenyl)propan-2-yl)benzonitrile], the IC50 was 569 nM. Take `Cc1ncsc1-c1ccc([C@H](C)NC(=O)[C@@H]2C[C@@H](O)CN2C(=O)[C@@H](NC(=O)CN2CCC(CN3CCN(c4nccc(COc5ccc(C(C)(C)c6cc(Cl)cc(C#N)c6)cc5)n4)CC3)CC2)C(C)(C)C)cc1` [Compound 51 trifluoroacetate, (2S,4R)-1-((S)-2-(2-(4-((4-(4-((4-(2-(3-chloro-5-cyanophenyl)propan-2-yl)phenoxy)methyl)pyrimidin-2-yl)piperazin-1-yl)methyl)piperidin-1-yl)acetamido)-3,3-dimethylbutanoyl)-4-hydroxy-N-((S)-1-(4-(4-methylthiazol-5-yl)phenyl)ethyl)pyrrolidine-2-carboxamide]: the IC50 (Homo sapiens, 22Rv1, 168 h) stood at 825 nM. Still for that read-out and setting: as for `CCOc1c(Cl)cc(C(C)(C)c2ccc(OCc3ccnc(N4CCC5(CC4)CC(N4CCC(c6ccc7c(c6)n(C)c(=O)n7C6CCC(=O)NC6=O)CC4)C5)n3)cc2)cc1C#N` (centres unmarked) [Compound 107 trifluoroacetate, 3-chloro-5-(2-(4-((2-(2-(4-(1-(2,6-dioxopiperidin-3-yl)-3-methyl-2-oxo-2,3-dihydro-1H-benzo[d]imidazol-5-yl)piperidin-1-yl)-7-azaspiro[3.5]nonan-7-yl)pyrimidin-4-yl)methoxy)phenyl)propan-2-yl)-2-ethoxybenzonitrile], the figure is 526 nM. In the case of `CC(C)(c1ccc(OCc2ccnc(N3CCN(CC4CCN(C5CCN(c6cccc7c6C(=O)N(C6CCC(=O)NC6=O)C7=O)CC5)CC4)CC3)n2)cc1)c1cc(Cl)c(OCCCl)c(C#N)c1` (centres unmarked) [Compound 12, 3-chloro-2-(2-chloroethoxy)-5-(2-(4-((2-(4-((1′-(2-(2,6-dioxopiperidin-3-yl)-1,3-dioxoisoindolin-4-yl)-[1,4′-bipiperidin]-4-yl)methyl)piperazin-1-yl)pyrimidin-4-yl)methoxy)phenyl)propan-2-yl)benzonitrile], the IC50 amounted to 804 nM. Regarding `CC(C)(c1ccc(OCc2ccnc(N3CC(CN4CCC5(CC4)CCN(c4ccc6c(c4)C(=O)N(C4CCC(=O)NC4=O)C6=O)CC5)C3)n2)cc1)c1cc(Cl)cc(C#N)c1` (centres unmarked) [Compound 87 trifluoroacetate, 3-chloro-5-(2-(4-((2-(3-((9-(2-(2,6-dioxopiperidin-3-yl)-1,3-dioxoisoindolin-5-yl)-3,9-diazaspiro[5.5]undecan-3-yl)methyl)azetidin-1-yl)pyrimidin-4-yl)methoxy)phenyl)propan-2-yl)benzonitrile], the IC50 (Homo sapiens, 22Rv1, 168 h) came to 303 nM. Still for that read-out and setting: as for `CCOc1c(Cl)cc(C(C)(C)c2ccc(OCc3ccnc(N4CC5(CCC(N6CCC(c7ccc8c(c7)n(C)c(=O)n8C7CCC(=O)NC7=O)CC6)CC5)C4)n3)cc2)cc1C#N` (centres unmarked) [Compound 121 trifluoroacetate, 3-chloro-5-(2-(4-((2-(7-(4-(1-(2,6-dioxopiperidin-3-yl)-3-methyl-2-oxo-2,3-dihydro-1H-benzo[d]imidazol-5-yl)piperidin-1-yl)-2-azaspiro[3.5]nonan-2-yl)pyrimidin-4-yl)methoxy)phenyl)propan-2-yl)-2-ethoxybenzonitrile], the figure is 842 nM; as for `CC(C)(c1ccc(OCc2ccnc(N3CCN(C4CN(CC5CCN(c6ccc7c(c6)C(=O)N(C6CCC(=O)NC6=O)C7=O)C5)C4)CC3)n2)cc1)c1cc(Cl)cc(C#N)c1` (centres unmarked) [Compound 58 trifluoroacetate, 3-chloro-5-(2-(4-((2-(4-(1-((1-(2-(2,6-dioxopiperidin-3-yl)-1,3-dioxoisoindolin-5-yl)pyrrolidin-3-yl)methyl)azetidin-3-yl)piperazin-1-yl)pyrimidin-4-yl)methoxy)phenyl)propan-2-yl)benzonitrile], 744 nM. On the same count and under the same terms, as for `Cn1c(=O)n(C2CCC(=O)NC2=O)c2ccc(C3CCN(CC4CCN(C5CCN(c6nccc(COc7ccc(C(C)(C)c8cc(Cl)cc(C#N)c8)cc7)n6)CC5)CC4)CC3)cc21` (centres unmarked) [Compound 91 trifluoroacetate, 3-chloro-5-(2-(4-((2-(4-((4-(1-(2,6-dioxopiperidin-3-yl)-3-methyl-2-oxo-2,3-dihydro-1H-benzo[d]imidazol-5-yl)piperidin-1-yl)methyl)-[1,4′-bipiperidin]-1′-yl)pyrimidin-4-yl)methoxy)phenyl)propan-2-yl)benzonitrile], the figure is 427 nM.

Consider `Cn1c(=O)n(C2CCC(=O)NC2=O)c2cccc(CN3CCC(N4CCC5(CCN(c6nccc(COc7ccc(C(C)(C)c8cc(Cl)cc(C#N)c8)cc7)n6)CC5)CC4)CC3)c21` (centres unmarked) [Compound 100 trifluoroacetate, 3-chloro-5-(2-(4-((2-(9-(1-((1-(2,6-dioxopiperidin-3-yl)-3-methyl-2-oxo-2,3-dihydro-1H-benzo[d]imidazol-4-yl)methyl)piperidin-4-yl)-3,9-diazaspiro[5.5]undecan-3-yl)pyrimidin-4-yl)methoxy)phenyl)propan-2-yl)benzonitrile], for which the IC50 (Homo sapiens, 22Rv1, 168 h) was determined as 577 nM. For the molecule `CC(C)(c1ccc(OCc2ccnc(N3CCN(CC4CCN(CC5CCN(c6ccc7c(c6)C(=O)N(C6CCC(=O)NC6=O)C7=O)CC5)CC4)CC3)n2)cc1)c1cc(Cl)c(OCCCl)c(C#N)c1` (centres unmarked) [Compound 13, 3-chloro-2-(2-chloroethoxy)-5-(2-(4-((2-(4-((1-((1-(2-(2,6-dioxopiperidin-3-yl)-1,3-dioxoisoindolin-5-yl)piperidin-4-yl)methyl)piperidin-4-yl)methyl)piperazin-1-yl)pyrimidin-4-yl)methoxy)phenyl)propan-2-yl)benzonitrile], the IC50 came out at 721 nM. Regarding `CC(C)(c1ccc(OCc2ccnc(N3CCN(CC4CCN(C5CCN(c6ccc7c(c6)C(=O)N(C6CCC(=O)NC6=O)C7=O)CC5)CC4)CC3)n2)cc1)c1cc(Cl)c(OCCCl)c(C#N)c1` (centres unmarked) [Compound 11, 3-chloro-2-(2-chloroethoxy)-5-(2-(4-((2-(4-((1′-(2-(2,6-dioxopiperidin-3-yl)-1,3-dioxoisoindolin-5-yl)-[1,4′-bipiperidin]-4-yl)methyl)piperazin-1-yl)pyrimidin-4-yl)methoxy)phenyl)propan-2-yl)benzonitrile], the IC50 came out at 356 nM. On the same count and under the same terms, as for `CC(C)(c1ccc(OCc2ccnc(N3CCC4(CC3)CCN(C3CCN(CC5CCN(c6ccc7c(c6)C(=O)N(C6CCC(=O)NC6=O)C7=O)CC5)CC3)CC4)n2)cc1)c1cc(Cl)c(OCCCl)c(C#N)c1` (centres unmarked) [Compound 27, 3-chloro-2-(2-chloroethoxy)-5-(2-(4-((2-(9-(1-((1-(2-(2,6-dioxopiperidin-3-yl)-1,3-dioxoisoindolin-5-yl)piperidin-4-yl)methyl)piperidin-4-yl)-3,9-diazaspiro[5.5]undecan-3-yl)pyrimidin-4-yl)methoxy)phenyl)propan-2-yl)benzonitrile], the figure is 663 nM.

These data come from patent US20240383874A1, “BENZENE RING DERIVATIVE, AND COMPOSITION AND PHARMACEUTICAL USE THEREOF” (Xizang Haisco Pharmaceutical Co., Ltd., priority 2020, published 2024).
